In US6632921B1, “Seryl-lysyl-based peptide and peptidomimetic inhibitors of N-myristoyl transferase as anti-infective agents” (G. D Searle & Co, priority 1995, dated 2003) one finds inhibition, EC50 and IC50 data, which are given here for 9 molecules.

By inhibition is commonly meant the drop in the measured response relative to a control, in per cent. By IC50 is commonly meant the concentration at which inhibition is half-maximal.

Read-outs that look alike come from different tables or passages of the source. Non-standard residues stand in square brackets, D forms with d. Residues, ends and D or L forms follow the SMILES beside them. Cha = N[C@@H](CC1CCCCC1)C(=O)O; Aun = NCCCCCCCCCCC(=O)O Where only a bound is given, the exact number is not on record here.

For test [1], the target named is T1, Candida albicans NMT (Candida albicans, UniProt P30418).
T1 construct: made in house; host or cells: E. coli
T1 sequence (P30418 1-451): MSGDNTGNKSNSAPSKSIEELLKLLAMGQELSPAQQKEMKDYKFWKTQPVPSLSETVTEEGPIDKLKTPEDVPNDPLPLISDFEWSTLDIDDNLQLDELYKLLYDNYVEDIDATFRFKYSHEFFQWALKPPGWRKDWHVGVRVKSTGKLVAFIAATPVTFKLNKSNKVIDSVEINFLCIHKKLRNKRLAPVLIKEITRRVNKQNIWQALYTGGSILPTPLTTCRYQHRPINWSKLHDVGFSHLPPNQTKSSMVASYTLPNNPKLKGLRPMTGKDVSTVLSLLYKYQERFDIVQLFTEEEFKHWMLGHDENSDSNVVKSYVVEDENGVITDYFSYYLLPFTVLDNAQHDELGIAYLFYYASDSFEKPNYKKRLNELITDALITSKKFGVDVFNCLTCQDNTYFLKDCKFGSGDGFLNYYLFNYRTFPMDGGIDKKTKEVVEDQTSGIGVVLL
The test can be described thus: NMT enzyme inhibition assay (radiochemical HPLC end-point), Candida NMT. The conditions noted are these: for IC50: Table V, read-out: IC50 caNMT. In kind it is biochemical. How it is done:
Recombinant Candida albicans and human NMTs were expressed and purified from E. coli using previously described protocols. [D. A. Towler et al, Proc. Natl. Acad. Sci. USA, 84, 2707-2712 (1987); R. C. Weigand et al, J. Biol. Chem., 267, 8591-8598 (1992); R. J. Duronio et al, Proc. Natl. Acad. Sci. USA, 89, 4129-4133 (1992)] The ability of compounds to inhibit Candida NMT enzymatic activity was assessed using a radiochemical HPLC end-point assay as described previously for Saccharomyces cerevisiae and human NMTs. [D. Towler et al, Proc. Natl. Acad. Sci. USA, 83, 2812-2816 (1986); W. J. Rocque et al, J. Biol. Chem., 268, 9964-9971 (1991)] The donor substrate [^3H]myristoyl-coenzyme A was enzymatically synthesized from [^3H]myristic acid (50 Ci/mmol, Amersham, Arlington Heights, Ill.) and coenzyme A (Fluka Chemical Corp., Ronkonkoma, N.Y.), and purified as described previously. [W. J. Rocque et al, J. Biol. Chem., 268, 9964-9971 (1991)] The peptide acceptor substrate GNAASARR-NH2 was prepared by solid-phase peptide synthesis using the t-Boc amino acid methodology, followed by HF treatment and reverse-phase HPLC purification. Inhibitor stock solutions were prepared at 22 mM in DMSO; the final concentration of DMSO in each assay was 0.5% (v/v). Inhibition assays were carried out by combining variable amounts of inhibitor or buffer with […] of [^3H]myristoyl-coenzyme A (1 μCi, 9.09 Ci/mmol) and 2.2 nmoles of GNAASARR-NH2 in a total volume of 60 μL of 0.2 M N-[2-hydroxy-ethyl]piperazine-N′-[2-ethanesulfonic acid], pH 7.4, 2 mM DL-dithiothreitol, 0.2 mM ethylene glycol-bis-(β-aminoethyl ether) N,N,N′,N′-tetraacetic acid, and initiating the reaction by the addition of 50 μL of a Candida NMT solution (7-12 ng/50 μL). Assays with human NMT were identical except that they used 60-75 ng/50 μL of enzyme solution and 0.22 nmoles of GNAASARR-NH2. The reaction was quenched after 10 minutes at 24° C. by the addition of ice-cold MeOH, and the reaction products were separated and measured using C4 reverse-phase HPLC (Vydac 214TP10415; Separations Group, Hesperia, Calif.) and in-line scintillation counting using a Radiomatic A250 (Packard Instruments, Downers Grove, Ill.) and Ecolite(+) (ICN Biomedical, Costa Mesa, Calif.) as the scintillant. Selectivity was determined by calculating the ratio of the IC50 against human NMT to the IC50 against C. albicans NMT.

In test [2] the test system is Candida albicans, strain B311. The test can be described thus: Antifungal susceptibility testing, microdilution broth, pH 5.4/30° C./YNB. In kind it is cell-based. How it is done:
Antifungal Screens were set up initially against Candida albicans, strain B311, and Cryotococcus neoformans, strain L210425. Both pathogens, (originally from the stock culture collection, Medical mycology research center, Washington university-Barnes hospital), were obtained from Dr.Kobayashi, Prof.of infectious diseases, Washington University, St.Louis, Mo.
All cultures are maintained at 30° C. on Sabouraud's dextrose agar slants and subcultured at monthly intervals to fresh medium. All inocula for susceptibility testing are prepared in yeast nitogen base(YNB, Difco) broth.
A loopful of growth from Sabouraud dextrose agar slant is inoculated into 4 ml of YNB broth media and incubated at 30° C. overnight (18-24 hrs) with constant agitation (Gyratory Shaker, New Brunswick Scientific). Prior to setting up susceptibility testing, the organisms are counted in a hemocytometer, and diluted as needed into assay media.
1) (Assay at DH 5.4/30° C. Incubation/YNB Media).
Antifungal assays were carried out initially by a modification of the method published by Jones, et. al; (1), and communicated to Searle by Dr. Kobayashi, Washington University. [R. N. Jones et al, Manual of Clinical Microbiology, 4th ed., (1985)]
The antifungal susceptibility testing consists of a microdilution broth procedure performed in 96 well microtiter plates (Costar, cat#3799). Briefly, test compounds from a 20 mM stock solution in DMSO are diluted into sterile, deionized water (final DMSO concentration not exceeding 1%), to yield 2× the desired concentration (100 uM, 10 uM and 1 uM for an initial screen, or a selected concentration range in serial 2 fold dilutions for EC50 determination). One hundred microliters (100 ul) of each concentration is dispensed into triplicate wells of a 96 well microtiter plate. Appropriate dilutions of a suspension of C.albicans (1×10^6 cells/ml) in 2× YNB is distributed into each of the wells, including growth control wells containing no test compound as well as control wells with 0.5% DMSO. Amphotericin B at 0.05, 1 and 5 ug/ml is included in each assay plate as a positive control. The plates are incubated at 30° C. and cell growth is scored by reading the absorbance at 590 nm on an Elisa plate reader(Dynatech, MR.5000).
In general terms: Dilution methods test growth across graded concentrations, often in twofold steps.

Setting [3] is: read-out: % inhibition of caNMT.
The mark [4] stands for this setting: B311, 24 h, pH 5.4, read-out: caEC50 24 hours.
The mark [5] stands for this setting: B311, 24 hours, Table V (values agree with pH 5.4 assay), read-out: caEC50 24 hours.

In the case of `Cc1nccn1CCCCc1ccc(CC(=O)N[C@@H](CO)C(=O)N[C@@H](CCCCN)C(=O)N[C@@H](CC(C)C)C(=O)O)cc1` [Example 8, L-Leucine, N-[N^2-[N-[[4-[4-(2-Methyl-1H-imidazol-1-yl)butyl]phenyl]acetyl]-L-seryl]-L-lysyl]-, bis-trifluoroacetate], the inhibition at 10 µM in test [1] (setting [3]) amounted to 78%. For the same molecule, the EC50 in test [2] (setting [4]) is above 100 µM.
With `CC(C)C[C@H](NC(=O)[C@H](CCCCN)NC(=O)[C@H](CO)NC(=O)CCCCCCCCCCN)C(=O)O` [Example 4, L-leucine, N-[[(11-amino-undecanoyl)-L-seryl]-L-lysyl]-, bis-trifluoroacetate] (H-[Aun]SKL-OH), in test [1], the concentration for half-maximal inhibition (IC50) worked out at 6.7 µM. Besides, the EC50 in test [2] (setting [4]) stood at 63 µM.
As for `Cc1nccn1CCCCc1ccc(CC(=O)N[C@@H](CO)C(=O)N[C@@H](CCCCN)C(=O)NC(CC(=O)O)C2CCCCC2)cc1` (mixture of isomers) [Example 9, Lysinamide, N-[1-Cyclohexyl-2-carboxyethyl]-N^2-[N-[[4-[4-(2-methyl-1H-imidazol-1-yl)butyl]phenyl]acetyl]-L-seryl]-, ±, bis-trifluoroacetate], the IC50 in test [1] was 6 µM. Besides, the EC50 in test [2] (setting [5]) is above 100 µM.
Regarding `Cc1nccn1CCCCc1ccc(CC(=O)N[C@@H](CO)C(=O)N[C@@H](CCCCN)C(=O)NC(CC(=O)O)C2CCCCCCC2)cc1` (mixture of isomers) [Example 10, Lysinamide, N-[1-Cyclooctyl-2-carboxyethyl]-N^2-[N-[[4-[4-(2-methyl-1H-imidazol-1-yl)butyl]phenyl]acetyl]-L-seryl]-, ±, bis-trifluoroacetate], the inhibition at 10 µM in test [1] (@ 10 μM, read-out: % inhibition of caNMT) was found to be 40%. In addition, the EC50 in test [2] (setting [5]) is above 100 µM.
In the case of `Cc1nccn1CCCCc1ccc(CC(=O)N[C@@H](CO)C(=O)N[C@@H](CCCCN)C(=O)N[C@H](CC2CCCCC2)C(=O)O)cc1` [Example 11, D-alanine, 3-cyclohexyl-N-[N^2-[N-[[4-[4-(2-methyl-1H-imidazol-1-yl)butyl]phenyl]acetyl]-L-seryl]-L-lysyl]-, bis-trifluoroacetate], in test [1], the IC50 is 18 µM. The EC50 in test [2] (setting [4]) was above 100 µM.
On to `Cc1nccn1CCCCc1ccc(CC(=O)N[C@@H](CO)C(=O)N[C@@H](CCCCN)C(=O)N[C@@H](C)C(=O)O)cc1` [Example 5, L-alanine, N-[N^2-[N-[[4-[4-(2-methyl-1H-imidazol-1-yl)butyl]phenyl]acetyl]-L-seryl]-L-lysyl]-, bis-trifluoroacetate], for which, in test [1] (setting [3]), the inhibition at 10 µM is 27%. The EC50 in test [2] (setting [4]) was determined as 68 µM.
On to `CC[C@H](C)[C@H](NC(=O)[C@H](CCCCN)NC(=O)[C@H](CO)NC(=O)Cc1ccc(CCCCn2ccnc2C)cc1)C(=O)O` [Example 7, L-iso-leucine, N-[N^2-[N-[[4-[4-(2-methyl-1H-imidazol-1-yl)butyl]phenyl]acetyl]-L-seryl]-L-lysyl]-, bis-trifluoroacetate], for which, in test [1], the IC50 worked out at 100 µM. Also, the EC50 in test [2] (setting [5]) was 97 µM.
In the case of `NCCCCCCCCCCC(=O)N[C@@H](CO)C(=O)N[C@@H](CCCCN)C(=O)N[C@@H](CC1CCCCC1)C(=O)O` [Example 3, L-Alanine, 3-cyclohexyl-N-[[(11-amino-undecanoyl)-L-seryl]-L-lysyl]-, bis-trifluoroacetate] (H-[Aun]SK[Cha]-OH), the inhibition at 11 µM in test [1] (setting [3]) amounted to 80%. Further, in test [2] (setting [4]), the EC50 was found to be 33 µM.
As to `Cc1nccn1CCCCc1ccc(CC(=O)N[C@@H](CO)C(=O)N[C@@H](CCCCN)C(=O)N[C@@H](Cc2ccccc2)C(=O)O)cc1` [Example 6, L-Alanine, 3-phenyl-N-[N^2-[N-[[4-[4-(2-methyl-1H-imidazol-1-yl)butyl]phenyl]acetyl]-L-seryl]-L-lysyl]-, bis-trifluoroacetate], the inhibition at 10 µM in test [1] (setting [3]) worked out at 36%. Besides, in test [2] (setting [4]), the EC50 came out at 80 µM.
